Data from patent US20250025493A1, “GLUCOHEXAOSE AND PREPARATION METHOD THEREFOR AND APPLICATION THEREOF, AND HAIR REGENERATION PREPARATION” (UNIVERSITY OF MACAU, priority 2021, published 2025).

How the values were obtained:
[1] = test system: mouse bone marrow-derived macrophages (mBMDM); assay: Induction and activation experiment on macrophages, eukaryotic mRNA sequencing of released cytokines; format: cell-based, mouse (C57BL/6J); conditions: 50 ug/ml, 24 h co-incubation, vs PBS group, FIG. 1
Description: The gulcohexaose sample prepared in example 1 above was used to perform an induction and activation experiment on mouse bone marrow-derived macrophages (mBMDM, primary cells extracted from C57BL/6J mice by laboratory methods):
Mouse bone marrow-derived monocytes (5×10^6 cells/10 cm petri dish) were seeded in 10 cm petri dishes and cultured using L929 cell culture supernatant obtained after 7 days of culture+RPMI-1640 medium+10% fetal bovine serum+1% penicillin-streptomycin in a 37° C., 5% CO2 incubator. After cell adherence, the cells were co-incubated with 50 ug/ml gulcohexaose for 24 h, designated as OG6 group, while a blank group (an experimental group to which the gulcohexaose was not added and to which an equal volume (10 μl) of PBS buffer (mainly consisted of Na2HPO4, KH2PO4, NaCl and KCl) was added) was set up, designated as PBS group. After 24 h of co-incubation, the total RNA was extracted from the sample using TRIzol (Invitrogen), eukaryotic mRNA sequencing experiment analysis and bioinformatics analysis were performed, and the difference between the expression level of cytokines released by the mouse bone marrow-derived macrophages stimulated by the gulcohexaose and the expression level of cytokines released in the blank group was compared. This experiment was repeated twice.

[2] = test system: hair follicles in back unhairing area, androgenetic alopecia (AGA) mouse model; assay: Animal experiment, direct application, mouse model of androgenetic alopecia (AGA); format: in vivo, C57BL/6J mice; conditions: direct topical application on D-0, D-7, D-14, FIG. 3
Excerpt: The gulcohexaose sample prepared in example 1 was investigated for the biological effect in promoting hair follicle regeneration.
The method is as follows: healthy male 7-week-old C57BL/6J mice were subjected
to back unhairing treatment, wherein the hair on the back area was completely removed using an unhairing cream (Veet); starting from D-0, testosterone was topically applied to the back unhairing area of the mice every day to establish a mouse model of androgenetic alopecia (AGA), and the hair growth of the mice was photographed for recording; the gulcohexaose was directly and topically applied to the back unhairing area of the mice every seven days (D-0, D-7, D-14), designated as OG6 group; a blank group (no applying) was set up, designated as a control group; and the hair growth on the back of the mice was observed on day 21.

[3] = test system: hair follicles in back unhairing area, androgenetic alopecia (AGA) mouse model; assay: Animal experiment, microneedle administration, mouse model of androgenetic alopecia (AGA); format: in vivo, C57BL/6J mice; conditions: microneedle administration on D-0, D-7, D-14, FIG. 5
Excerpt: (§1) The method is as follows: healthy male 7-week-old C57BL/6J mice were subjected to back unhairing treatment, wherein the hair on the back area was completely removed using an unhairing cream (Veet); starting from D-0, testosterone was topically applied to the back unhairing area of the mice every day to simulate androgenetic alopecia (AGA) for modeling, and the hair growth of the mice was photographed for recording; the gulcohexaose was microneedle administered to the back unhairing area of the mice every seven days (D-0, D-7, D-14), designated as OG6 group; a blank group (no applying) was set up, designated as a control group; and the hair growth on the back of the mice was observed on day 21.

[4] = test system: hair follicles in back unhairing area, androgenetic alopecia (AGA) mouse model; assay: Animal experiment, subcutaneous injection, mouse model of androgenetic alopecia (AGA); format: in vivo, C57BL/6J mice; conditions: subcutaneous injection on D-0, D-7, D-14, FIG. 4
Excerpt: as §1, with “(AGA),” for “(AGA) for modeling,”, “subcutaneously injected” for “microneedle administered”

[5] = test system: Ccl5 gene in mouse bone marrow-derived macrophages (mBMDM); assay: Verification experiment, real-time fluorescence quantitative PCR of Ccl5 gene expression in macrophages; format: cell-based, mouse (C57BL/6J); conditions: 50 ug/ml, FIG. 2
Excerpt: To verify the experimental results of eukaryotic mRNA sequencing analysis, a real-time fluorescence quantitative PCR experiment was used to determine the expression level of Ccl5 gene in macrophages stimulated by the gulcohexaose. The gulcohexaose prepared in example I was used to perform an induction and activation experiment on mouse bone marrow-derived macrophages (mBMDM, primary cells extracted from C57BL/6J mice by laboratory methods): • mouse bone marrow-derived monocytes (5×10^6 cells/10 cm petri dish) were seeded in 10 cm petri dishes and cultured using L929 cell culture supernatant obtained after 7 days of culture+RPMI-1640 medium+10% fetal bovine serum+1% penicillin-streptomycin in a 37° C., 5% CO2 incubator. […] After co-incubation for different time periods, the total RNA was extracted from the samples respectively, and the expression levels of Ccl5 cytokine in mouse bone marrow-derived macrophages before and after the stimulation by the gulcohexaose were detected by real-time quantitative PCR.

[6] = test system: androgenetic alopecia in mouse models; assay: Treatment of androgenetic alopecia in mouse models, summary over all administration routes; format: in vivo, mice; conditions: direct skin application, subcutaneous injection or microneedle release administration
Excerpt: The glucohexaose used in the present disclosure can be used to treat androgenetic alopecia in mouse models via any one of direct skin application administration, subcutaneous injection administration and microneedle release administration, and the hair formation is observed.

Man-Man-Man-Man-Glc-Glc [gulcohexaose]
expression level of cytokines released by macrophages versus blank group (mRNA sequencing) [1]: can specifically activate macrophages to release a cytokine network mainly comprising CCL5 chemotactic factors | hair growth on day 21 compared with blank group ([2]; day 21): obviously superior to that on the mice in the blank group | hair follicle stage in back treatment area compared with blank group ([2]; testosterone-induced AGA mice): have entered a growth period from a resting period and grew hair | hair growth at treated part compared with blank group ([3]; observed day 21): obviously denser than that on the mice in the blank group | hair follicle stage in back treatment area compared with blank group ([3]; testosterone-induced AGA mice): the first to enter a growth period from a resting period and are the first to grow hair | hair growth on day 21 compared with blank group ([4]; day 21): obviously superior to that on the mice in the blank group | hair follicle stage in back treatment area compared with blank group ([4]; testosterone-induced AGA mice): have entered a growth period from a resting period and grew hair | expression level of Ccl5 cytokine in macrophages (real-time quantitative PCR) ([5]; 1 h, 12 h and 24 h, vs PBS group): rapidly upregulate the expression level of Ccl5 cytokine | expression level of Ccl5 cytokine in macrophages after 24 hours of stimulation ([5]; 24 h): high expression level of Ccl5 cytokine in macrophages maintained | adverse reactions [6]: without any serious adverse reactions | growth of hair on the back of mice [6]: can effectively promote the growth of hair on the back of mice
